According to patent publication US10287301B2 (Achillion Pharmaceuticals, Inc., priority 2015, dated 2019):

system: complement alternative pathway (CAP), hemolysis of rabbit erythrocytes (RE); experiment: Combination therapy: hemolysis assay of two compounds; format: cell-based, human; conditions: combination with Complement Factor D inhibitor ("1"); 95% confidence limits; means ± standard deviations from two or three independent experiments
Experimental: The combinatorial efficacy of two compounds on the complement alternative pathway (CAP) was assessed by determining the effect of two compounds mixed together at various concentrations with Normal Human Serum (NHS) on the hemolysis of rabbit erythrocytes (RE) or the production of terminal complement complex (TCC). In both assays the two test compounds were prepared individually in seven-point dilution series, with an eighth sample for each containing solvent alone, and each of the 64 possible combinations was tested in duplicate or triplicate wells.
In the hemolysis assay, NHS (Complement Technology) diluted to 10% in GVB^0 Buffer (0.1% gelatin, 5 mM Veronal, 145 mM NaCl, 0.025% NaN3, pH 7.3, Complement Technology) plus 10 mM Mg-EGTA was incubated with the compounds at various concentrations for 15 minutes at 37° C. RE (Complement Technology) freshly suspended in GVB^0 plus 10 mM Mg-EGTA was added to a final concentration of 1×10^8 cells/mL and reactions were incubated for 30 minutes at 37° C. Positive control reactions consist of GVB^0 plus Mg-EGTA with NHS and RE but without test compounds; negative control reactions consist of GVB^0 plus Mg-EGTA with RE only. Samples were centrifuged at 2000 g for 3 minutes and supernatants collected. Absorbance at 405 nm (A405) was recorded using a microplate spectrophotometer.
Combinatorial effects in both assays were analyzed using the three-dimensional surface-graphing method of Prichard, M. N. and C. Shipman, Jr., Antiviral Research 1990, 14: 181-205, wherein the X-axis and Y-axis indicate test compound concentrations and the Z-axis indicates the difference between measured inhibition and a theoretically determined additive inhibition. For an additive combinatorial relationship the surface graph will resemble a horizontal plane of zero height, whereas positive surface peaks indicate greater inhibition than expected and therefore synergy, and negative surface peaks indicate less inhibition than expected and therefore antagonism.
Synergy and antagonism volumes are the summed volumes of peaks respectively above and below the Z=0 plane on the surface graph. Volumes are determined using 95% confidence limits to assure significance. Compounds are considered additive for volumes between −25 and 25. Compounds are considered slightly synergistic for volumes between 25 and 50, moderately synergistic for volumes between 50 and 100, and strongly synergistic for volumes greater than 100. Compounds are considered slightly antagonistic for volumes between −25 and −50, moderately antagonistic for volumes between −50 and −100, and strongly antagonistic for volumes less than −100. Results are presented as means±standard deviations from two or three independent experiments.

SMILES | Antagonism Volume [μM^2 · % inhibition] | Synergy Volume [μM^2 · % inhibition]
CCN[C@H](CC(=O)N1CCN(c2nc(N)c3cc(OC)c(OC)c(F)c3n2)CC1)c1ccc(F)cc1 [Complement Factor B inhibitor] | −18 ± 10 | 157 ± 99
CC[C@H](C)[C@H](N)C(=O)N[C@H]1CSSC[C@@H](C(=O)N[C@H](C(N)=O)[C@@H](C)O)NC(=O)[C@H](CCCN=C(N)N)NC(=O)[C@H](Cc2cnc[nH]2)NC(=O)[C@H](Cc2cnc[nH]2)NC(=O)CNC(=O)[C@H](Cc2c[nH]c3ccccc23)NC(=O)[C@H](CC(=O)O)NC(=O)[C@H](CCC(N)=O)NC(=O)[C@H](C(C)C)NC(=O)[C@H](C(C)C)NC1=O [Compstatin] | −17 ± 15 | 244 ± 104
N=C(N)c1ccc2cc(OC(=O)c3ccc(N=C(N)N)cc3)ccc2c1 [FUT-175] | −59 ± 11 | 95 ± 37
